Assay [1] deals with T1, Tyrosyl-DNA phosphodiesterase 2 (Homo sapiens, UniProt O95551).
T1 sequence (O95551 whole entry): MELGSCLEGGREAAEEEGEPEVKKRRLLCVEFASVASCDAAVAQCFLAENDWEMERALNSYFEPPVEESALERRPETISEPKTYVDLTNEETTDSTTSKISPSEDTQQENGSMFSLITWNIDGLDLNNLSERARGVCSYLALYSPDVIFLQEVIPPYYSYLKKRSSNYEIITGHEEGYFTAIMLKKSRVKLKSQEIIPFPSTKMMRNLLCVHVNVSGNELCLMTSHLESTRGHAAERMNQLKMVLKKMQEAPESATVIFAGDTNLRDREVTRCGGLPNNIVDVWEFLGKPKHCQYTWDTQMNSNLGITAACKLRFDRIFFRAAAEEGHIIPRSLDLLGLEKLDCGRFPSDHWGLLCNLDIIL
Nature of the assay: human TDP2 enzyme inhibitors, dose response, biochemical, epi absorbance, IC50 (AID 743297).

The target of assay [2] is T2, Apoptotic protease-activating factor 1 (Homo sapiens, UniProt O14727).
T2 sequence (O14727 whole entry): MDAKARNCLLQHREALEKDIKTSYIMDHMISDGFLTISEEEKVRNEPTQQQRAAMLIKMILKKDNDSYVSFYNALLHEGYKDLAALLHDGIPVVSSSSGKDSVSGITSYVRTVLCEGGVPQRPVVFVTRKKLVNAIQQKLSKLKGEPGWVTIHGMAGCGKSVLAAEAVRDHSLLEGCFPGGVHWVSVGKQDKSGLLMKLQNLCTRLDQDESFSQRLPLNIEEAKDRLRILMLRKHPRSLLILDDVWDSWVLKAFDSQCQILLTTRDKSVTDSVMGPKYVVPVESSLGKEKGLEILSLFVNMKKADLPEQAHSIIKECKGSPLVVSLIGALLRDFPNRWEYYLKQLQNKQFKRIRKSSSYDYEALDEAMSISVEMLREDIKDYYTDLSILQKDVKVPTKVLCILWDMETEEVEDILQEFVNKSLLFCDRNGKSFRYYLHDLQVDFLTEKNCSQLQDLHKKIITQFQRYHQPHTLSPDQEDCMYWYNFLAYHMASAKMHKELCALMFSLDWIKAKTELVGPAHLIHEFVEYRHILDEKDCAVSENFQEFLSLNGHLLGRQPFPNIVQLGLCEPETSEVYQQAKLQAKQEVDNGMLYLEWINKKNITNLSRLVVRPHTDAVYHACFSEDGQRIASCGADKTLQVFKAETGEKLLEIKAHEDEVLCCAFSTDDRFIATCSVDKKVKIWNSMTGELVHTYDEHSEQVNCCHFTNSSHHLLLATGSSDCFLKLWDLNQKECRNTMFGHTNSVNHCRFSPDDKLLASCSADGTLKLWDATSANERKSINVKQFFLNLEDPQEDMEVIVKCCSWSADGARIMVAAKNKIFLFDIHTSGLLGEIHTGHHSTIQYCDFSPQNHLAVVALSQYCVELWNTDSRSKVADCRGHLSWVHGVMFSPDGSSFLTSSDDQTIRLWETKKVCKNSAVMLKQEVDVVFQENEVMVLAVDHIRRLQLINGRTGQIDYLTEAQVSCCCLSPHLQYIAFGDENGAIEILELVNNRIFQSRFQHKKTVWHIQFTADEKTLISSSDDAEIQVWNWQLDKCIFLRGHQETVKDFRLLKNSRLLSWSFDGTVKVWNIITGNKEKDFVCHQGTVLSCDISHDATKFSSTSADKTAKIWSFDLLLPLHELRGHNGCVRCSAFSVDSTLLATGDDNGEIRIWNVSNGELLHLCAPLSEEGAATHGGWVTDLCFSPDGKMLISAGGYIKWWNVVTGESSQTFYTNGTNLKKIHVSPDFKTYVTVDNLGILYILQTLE
The class given is functional.

The next assay concerns the target Genome polyprotein (dengue virus type 2, UniProt P29990). Nature of the assay: Dengue-2 NS5 methyltransferase inhibitors, primary screen, biochemical, confirmation dose response (AID 588689). The class given is functional.
The target of a further assay is T3, Protein RecA (Mycobacterium tuberculosis, UniProt P9WHJ3).
T3 sequence (P9WHJ3 whole entry): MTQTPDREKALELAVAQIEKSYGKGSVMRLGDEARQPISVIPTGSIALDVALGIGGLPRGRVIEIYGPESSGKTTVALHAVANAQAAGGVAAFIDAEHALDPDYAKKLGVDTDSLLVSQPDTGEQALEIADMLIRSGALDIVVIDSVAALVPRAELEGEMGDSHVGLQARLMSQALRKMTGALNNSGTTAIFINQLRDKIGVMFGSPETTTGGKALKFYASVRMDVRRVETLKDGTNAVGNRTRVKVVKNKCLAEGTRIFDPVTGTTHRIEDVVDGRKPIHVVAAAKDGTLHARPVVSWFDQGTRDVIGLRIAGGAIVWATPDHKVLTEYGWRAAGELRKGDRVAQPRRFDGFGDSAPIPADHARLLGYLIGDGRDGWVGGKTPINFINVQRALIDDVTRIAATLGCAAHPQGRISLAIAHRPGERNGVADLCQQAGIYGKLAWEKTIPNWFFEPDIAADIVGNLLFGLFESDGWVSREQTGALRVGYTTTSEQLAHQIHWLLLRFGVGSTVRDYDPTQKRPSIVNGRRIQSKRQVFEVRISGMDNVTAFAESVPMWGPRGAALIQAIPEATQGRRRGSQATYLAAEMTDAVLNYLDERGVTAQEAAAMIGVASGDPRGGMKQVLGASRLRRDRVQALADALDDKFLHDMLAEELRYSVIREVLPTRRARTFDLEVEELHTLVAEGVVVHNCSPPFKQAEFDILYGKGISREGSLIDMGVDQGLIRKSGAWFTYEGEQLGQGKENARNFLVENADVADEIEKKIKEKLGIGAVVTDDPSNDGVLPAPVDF
Nature of the assay: Fluorescence Cell-Free Homogeneous Dose Retest to Identify Inhibitors of RecA-Intein Splicing Activity. [Related pubchem assays (depositor defined):AID2097, AID2223, AID489010, AID492950]. The class given is functional.

For the next assay, the target named is Nonstructural protein 1 (Influenza A virus, UniProt Q194T2). The class given is functional, Influenza A virus (A/California/07/2009(H1N1)).
Chain of Nonstructural protein 1 (Q194T2 whole entry): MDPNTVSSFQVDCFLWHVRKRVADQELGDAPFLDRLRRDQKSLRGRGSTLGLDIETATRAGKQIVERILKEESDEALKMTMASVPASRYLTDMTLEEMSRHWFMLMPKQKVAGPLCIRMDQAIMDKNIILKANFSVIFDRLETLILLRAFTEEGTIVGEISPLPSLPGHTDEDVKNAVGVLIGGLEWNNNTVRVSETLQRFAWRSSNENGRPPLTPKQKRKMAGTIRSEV
Assay [3] addresses Bifunctional protein GlmU (Mycobacterium tuberculosis, UniProt P9WMN3). The assay is described as follows: Inhibitors of Mycobacterial Glucosamine-1-phosphate acetyl transferase (GlmU). Secondary screen. Details: species or system Mycobacterium tuberculosis H37Rv.
Assay [4] has as its target T4, Endoribonuclease toxin MazF (Escherichia coli K-12, UniProt P0AE70).
T4 sequence (P0AE70 whole entry): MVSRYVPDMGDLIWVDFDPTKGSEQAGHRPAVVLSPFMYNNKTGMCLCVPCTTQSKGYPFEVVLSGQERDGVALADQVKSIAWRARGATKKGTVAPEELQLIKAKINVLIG
Nature of the assay: fluorescent RNA oligo signal without MazF, dose response, counter-screen for MazEF activator project, biochemical, fluorescence, single-stranded RNase substrate (AID 588502). The class given is functional.

Active and inactive are the calls of the source.

A word on the IC50: it is the concentration needed to halve the response being measured. By EC50 is commonly meant the concentration at which the effect is half-maximal.

Chain of Genome polyprotein (P29990 2492-3391 limits assumed): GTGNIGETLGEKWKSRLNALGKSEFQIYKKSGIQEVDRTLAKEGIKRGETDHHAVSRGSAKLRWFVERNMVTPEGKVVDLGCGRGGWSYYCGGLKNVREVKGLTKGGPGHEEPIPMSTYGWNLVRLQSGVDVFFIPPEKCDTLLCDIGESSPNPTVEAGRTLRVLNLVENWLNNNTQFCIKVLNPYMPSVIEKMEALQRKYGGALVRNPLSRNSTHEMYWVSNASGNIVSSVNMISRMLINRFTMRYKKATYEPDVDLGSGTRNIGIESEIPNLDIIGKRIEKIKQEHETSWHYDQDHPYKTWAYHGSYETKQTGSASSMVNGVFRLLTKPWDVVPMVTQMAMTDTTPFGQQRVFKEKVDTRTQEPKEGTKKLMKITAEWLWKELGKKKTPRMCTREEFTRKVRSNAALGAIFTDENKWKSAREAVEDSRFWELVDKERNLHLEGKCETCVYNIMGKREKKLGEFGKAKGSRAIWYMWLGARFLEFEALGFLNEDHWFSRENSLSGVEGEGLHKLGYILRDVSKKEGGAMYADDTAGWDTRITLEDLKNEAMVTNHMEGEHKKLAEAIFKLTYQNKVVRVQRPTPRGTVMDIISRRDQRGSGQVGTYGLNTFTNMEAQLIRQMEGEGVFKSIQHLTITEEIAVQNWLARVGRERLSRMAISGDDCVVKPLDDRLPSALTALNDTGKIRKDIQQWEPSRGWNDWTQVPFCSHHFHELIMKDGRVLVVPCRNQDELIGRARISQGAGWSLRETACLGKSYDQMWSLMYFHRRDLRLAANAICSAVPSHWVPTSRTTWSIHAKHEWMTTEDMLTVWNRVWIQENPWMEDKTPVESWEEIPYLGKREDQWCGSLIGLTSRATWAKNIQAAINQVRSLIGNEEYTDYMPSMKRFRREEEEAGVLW
Chain of Bifunctional protein GlmU (P9WMN3 whole entry): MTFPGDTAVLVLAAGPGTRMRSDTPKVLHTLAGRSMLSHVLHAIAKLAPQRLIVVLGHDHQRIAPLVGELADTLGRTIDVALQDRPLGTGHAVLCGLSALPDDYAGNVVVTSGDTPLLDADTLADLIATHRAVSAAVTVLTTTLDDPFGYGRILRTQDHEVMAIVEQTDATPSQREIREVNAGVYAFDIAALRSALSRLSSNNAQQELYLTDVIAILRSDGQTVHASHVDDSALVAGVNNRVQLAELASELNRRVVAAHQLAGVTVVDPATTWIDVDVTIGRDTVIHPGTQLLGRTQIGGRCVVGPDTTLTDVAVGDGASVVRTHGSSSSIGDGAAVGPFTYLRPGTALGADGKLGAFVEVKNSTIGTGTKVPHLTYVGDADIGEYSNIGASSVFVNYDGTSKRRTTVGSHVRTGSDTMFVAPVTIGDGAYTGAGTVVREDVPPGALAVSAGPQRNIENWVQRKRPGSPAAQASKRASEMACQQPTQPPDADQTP

As for `COC(=O)c1ccc(-c2ccc(C(c3c(C)[nH][nH]c3=O)c3c(C)[nH][nH]c3=O)o2)cc1`, the figures for the IC50 (in assay [1]; in assay [2]; on Genome polyprotein) were 74.3 µM (inactive), 23.9 µM (active) and > 100 µM (active), respectively. Moreover, the EC50 on Protein RecA is 0.348 µM (active).
In the case of `Oc1ccc(/C=N/NC(=S)Nc2cccnc2)c(O)c1O`, the IC50 was 3.58 µM (active) on Nonstructural protein 1, 24.4 µM (active) at Genome polyprotein and 83 µM (active) in assay [3]. The EC50 in assay [4] was > 99 µM (inactive).

These data come from ChEMBL document CHEMBL1201862, “PubChem BioAssay data set” (2004).
